Here are results for 15 compounds from ChEMBL document CHEMBL1132743, “Synthesis and biological evaluation of novel piperidine carboxamide derived calpain inhibitors” (Bioorg Med Chem Lett, 2000).

Square brackets hold non-standard residues; d marks the D form. Peptide text beside a SMILES is read from it. * marks the point of attachment. ξ: configuration not given here. ξF = NC(Cc1ccccc1)C(=O)O; Cbz = O=C(OCc1ccccc1)*

Assay [1] addresses T1, Calpain-1 catalytic subunit (Homo sapiens, UniProt P07384).
T1 sequence (P07384 whole entry): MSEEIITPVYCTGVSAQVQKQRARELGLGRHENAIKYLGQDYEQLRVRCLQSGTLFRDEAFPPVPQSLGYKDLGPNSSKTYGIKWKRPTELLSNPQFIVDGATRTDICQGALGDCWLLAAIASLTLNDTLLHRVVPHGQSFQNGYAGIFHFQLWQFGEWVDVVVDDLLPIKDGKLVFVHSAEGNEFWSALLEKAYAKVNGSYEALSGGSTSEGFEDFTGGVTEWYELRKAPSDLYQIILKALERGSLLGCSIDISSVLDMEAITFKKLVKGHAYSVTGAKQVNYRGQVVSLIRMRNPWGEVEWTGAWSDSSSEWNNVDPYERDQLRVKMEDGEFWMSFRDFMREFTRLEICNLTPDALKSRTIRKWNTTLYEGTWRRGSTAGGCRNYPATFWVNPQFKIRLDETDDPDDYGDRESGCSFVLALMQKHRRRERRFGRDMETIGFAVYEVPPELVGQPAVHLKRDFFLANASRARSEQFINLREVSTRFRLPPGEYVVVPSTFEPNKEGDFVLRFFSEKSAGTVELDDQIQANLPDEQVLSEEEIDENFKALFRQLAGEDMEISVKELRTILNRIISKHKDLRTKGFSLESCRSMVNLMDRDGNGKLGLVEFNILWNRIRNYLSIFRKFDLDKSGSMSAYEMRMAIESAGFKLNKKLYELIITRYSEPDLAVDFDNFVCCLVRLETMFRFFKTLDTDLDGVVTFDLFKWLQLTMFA
As to the kind of experiment: Inhibition of Suc-Leu-Tyr-AMC binding to human mu-calpain from erythrocytes. It is filed as biochemical.

Assay [2] concerns the target Cathepsin B (Homo sapiens, UniProt P07858). As to the kind of experiment: Inhibition of human Cathepsin B.
The species named for assay [3] is Mus musculus. As to the kind of experiment: Inhibitory activity of compound was tested for lethal convulsions induced by NMDA in mice. Format: functional.
A short description of assay [4]: Inhibition of calpain-mediated pp60src degradation in platelets. It is filed as functional, Homo sapiens.

As usually defined, the Ki is a dissociation constant, usually derived from enzyme kinetics or from competition with a known ligand. Read a low Ki as tighter binding. Take `CC(C)CC(NC(=O)C1CCN(C(=O)/C=C/c2ccccc2)CC1)C(=O)C(N)=O` (stereo not given): in assay [1], the Ki worked out at 1350 nM.
In assay [1], `NC(=O)C(=O)C(Cc1ccccc1)NC(=O)C1CCN(C(=O)c2cnc3ccccc3c2)CC1` (stereo not given) yielded a Ki of 670 nM.
Same read-out and setting: under `NC(=O)C(=O)C(Cc1ccccc1)NC(=O)C1CCN(C(=O)/C=C/c2ccncc2)CC1` (stereo not given) stands 13500 nM.
In assay [1], `NC(=O)C(=O)C(Cc1ccccc1)NC(=O)C1CCN(S(=O)(=O)c2ccc3ccccc3c2)CC1` (stereo not given) came in with a Ki of 450 nM.
Usually ED50 stands for the dose at which the effect has come halfway, by size or by number of responders. The low end stands for an effect at a small dose, the high end for a need for a large dose. As to `NC(=O)C(=O)C(Cc1ccccc1)NC(=O)C1CCN(C(=O)c2cc3ccccc3s2)CC1` (stereo not given), the Ki came to 3200 nM in assay [2] and 9 nM in assay [1]. Besides, it took a dose of 1 mg/kg to reach the 50% effect level in assay [3] (ED50).
For the compound `NC(=O)C(=O)C(Cc1ccccc1)NC(=O)C1CCN(C(=O)c2ccccc2)CC1` (stereo not given), affinity in assay [1] was put at a Ki of 560 nM.
`NC(=O)C(=O)C(Cc1ccccc1)NC(=O)C1CCN(Cc2ccc3ccccc3c2)CC1` (stereo not given) showed a Ki in assay [1] of 13600 nM.
For the compound `CCNC(=O)C(=O)C(Cc1ccccc1)NC(=O)C1CCN(S(=O)(=O)c2ccc3ccccc3c2)CC1` (stereo not given), in assay [1], the inhibition constant (Ki) is 800000 nM.
With `O=C(NCCCN1CCOCC1)C(=O)C(Cc1ccccc1)NC(=O)C1CCN(S(=O)(=O)c2ccc3ccccc3c2)CC1` (stereo not given), the Ki in assay [1] came to 810 nM.
Consider `CCC(NC(=O)C1CCN(C(=O)/C=C/c2ccccc2)CC1)C(=O)C(N)=O` (stereo not given), for which, in assay [1], the Ki was 33000 nM.
Take `O=C(NCCCN1CCOCC1)C(=O)C(Cc1ccccc1)NC(=O)C1CCN(C(=O)c2ccc3ccccc3c2)CC1` (stereo not given): in assay [1], the inhibition constant Ki was found to be 960 nM.
For orientation: IC50 means the midpoint of a concentration-inhibition curve. Lower therefore signals inhibition by little substance. Take `NC(=O)C(=O)C(Cc1ccccc1)NC(=O)C1CCN(C(=O)c2ccc3ccccc3c2)CC1` (stereo not given): the Ki in assay [2] was 7300 nM; in assay [1] it was 30 nM. For the same compound, the median effective dose (ED50) in assay [3] turned out to be 1.3 mg/kg. Besides, the midpoint of inhibition in assay [4], the IC50, lay at 1800 nM.
With `NC(=O)C(=O)C(Cc1ccccc1)NC(=O)C1CCN(C(=O)/C=C/c2ccccc2)CC1` (stereo not given), in assay [1], the Ki came out at 460 nM.
As to `NC(=O)C(=O)C(Cc1ccccc1)NC(=O)C1CCN(C(=O)c2ccc3ncccc3c2)CC1` (stereo not given), the Ki in assay [1] was 160 nM.
`CC(C)[C@H](NC(=O)OCc1ccccc1)C(=O)NC(C=O)Cc1ccccc1` (stereo partly drawn) (Cbz-Val-[ξF]-aldehyde) came in with a 50% inhibitory concentration (IC50) in assay [4] of 700 nM.
